Measurements: patent US20210181180A1, “METHOD FOR IDENTIFYING MALODOUR COUNTERACTANTS” (TAKASAGO INTERNATIONAL CORPORATION, priority 2016, published 2021)

Molecular target: T1, OR4E2 (Homo sapiens, UniProt Q8NGC2, Q234R/V118M)
T1 construct: expressed in transfected cells; host or cells: HEK293T cells expressing hRTP1s, transiently transfected with pcDNA5-OR4E2 and pNL(NlucP/CRE/Hygro)
T1 sequence (Q8NGC2 1-313 V118M/Q234R): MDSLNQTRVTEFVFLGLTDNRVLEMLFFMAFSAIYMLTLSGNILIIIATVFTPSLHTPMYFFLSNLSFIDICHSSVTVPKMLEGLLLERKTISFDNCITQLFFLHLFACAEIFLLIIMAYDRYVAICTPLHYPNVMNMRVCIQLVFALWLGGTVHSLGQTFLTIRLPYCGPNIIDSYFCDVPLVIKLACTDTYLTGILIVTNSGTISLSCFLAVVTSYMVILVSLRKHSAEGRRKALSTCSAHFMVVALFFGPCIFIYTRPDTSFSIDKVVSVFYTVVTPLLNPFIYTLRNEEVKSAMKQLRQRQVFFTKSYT
Assay: OR4E2 CRE-NanoLuc luciferase reporter assay in transiently transfected HEK293T cells
Format: cell-based
Settings: for response of OR4E2 to increasing concentrations of sulphur odorant (OR4E2 activation): seven concentrations 3-300 μM, 4 hours stimulation, luciferase activity, FIGS. 1A and 1B
Description: The experiments were performed using HEK293T cells (available e.g. from GE Healthcare) […] expressing the auxiliary protein hRTP1s, essential for efficient receptor trafficking to the plasma membrane (NPL 10, NPL 11; and NPL 12). The cell line was maintained in Dulbecco's modified Eagle Medium (DMEM, Euroclone) supplemented with 10% FBS (Fetal Bovine Serum, Euroclone cat. ECS0180L), 1% Penicillin/Streptomycin (Euroclone cat. B3001D), 50 μg/mL G418, […], and 10 μg/mL Zeocin.
The cDNA for OR4E2 was generated by custom gene synthesis (LifeTechnologies). The receptor DNA was then subcloned in frame 3′ from a transmembrane, localization epitope into a pcDNA5 expression vector (NPL 13). The correct identity of the receptor was checked by automated sequencing.
All sulphur odorants were prepared as 100 mM stock solutions using DMSO as a solvent and stored at −20″C. Copper(II) sulfate was prepared as an aqueous 30 mM stock solution. […]
The cDNA for the OR4E2 receptor was co-transfected with pNL(NlucP/CRE/Hygro) (Promega). […] The enzyme is about 100-fold brighter than either firefly (Photinus pyralis) or Renilla reniformis luciferase using a novel substrate, furimazine, to produce high intensity, glow-type luminescence. […]
24 hours post-transfection the medium was removed from the transfected cells and 30 μL of Tyrode's buffer containing the diluted sulphur odorant were added over 4 hours at 37° C. The cells were then transferred into an automated fluorometric imaging plate reader (FLIPR Tetra (registered trademark), Molecular Devices). […]
The data obtained from different well replicates (n=4) were analysed with Excel, ScreenWorks, and SigmaPiot 11, The responses of the receptor to the sulphur odorants were divided by the mean responses of the receptor towards Tyrode's buffer (fold of change: FOC). The mean and standard deviation of the resulting FOC values were calculated and plotted in vertical bar charts or concentration-response curves fitted by the SigmaPlot 11 software. […]

response of OR4E2 to increasing concentrations of sulphur odorant (OR4E2 activation) | Compound | OR4E2 activator (used at 300 μM as activating sulphur odorant in Example 2)
 | CSCSC [2,4-dithiapentane] | OR4E2 activator
positive effect | CC(C)(S)CCO [3-mercapto-3-methylbutanol] | 
positive effect | C=CCSSSCC=C [diallyl trisulfide] | 
